Data taken from patent publication US10144706B2 (BRISTOL-MYERS SQUIBB COMPANY, priority 2016, dated 2018).
Counter-ions that a name gives are not always drawn. Like-named read-outs stand apart in the source and are kept apart here.

Biological target: T1, PD-1/PD-L1 interaction (PD-1-Ig / PD-L1-His) (Homo sapiens, UniProt Q9NZQ7)
T1 construct: hPDL1(18-239)-TVMV-His; TVMV protease site linker (C); made in house; host or cells: HEK293T
Test: PD-1/PD-L1 Homogenous Time-Resolved Fluorescence (HTRF) binding assay
Settings: PD-L1-His 10 nM, PD-1-Ig 20 nM, read-out: Range or IC50
Method in brief: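 HTRF detection used 1 nM europium-cryptate anti-Ig and 20 nM APC anti-His. Compounds first saw 10 nM PD-L1-His for 15 min, and 20 nM PD-1-Ig was then added for another 15 min. Buffer was dPBS plus 0.1% BSA and 0.05% Tween-20. All concentrations are final.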

T1 sequence (Q9NZQ7 with tags, fused parts or gaps): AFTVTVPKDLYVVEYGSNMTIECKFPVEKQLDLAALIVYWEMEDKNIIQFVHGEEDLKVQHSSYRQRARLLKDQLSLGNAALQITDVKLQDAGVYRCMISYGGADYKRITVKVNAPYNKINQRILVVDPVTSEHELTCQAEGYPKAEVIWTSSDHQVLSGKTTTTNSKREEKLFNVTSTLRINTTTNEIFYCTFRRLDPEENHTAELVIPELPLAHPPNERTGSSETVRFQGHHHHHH

| Structure (SMILES) | IC50 (IC50 range class) | IC50 (numeric IC50) |
| --- | --- | --- |
| Cc1c(OCCCN2CC[C@@H](O)C2)cccc1-c1cccc(C(=O)NCCCN2CC[C@@H](O)C2)c1C [Example 3009, 3′-(3-((R)-3-hydroxypyrrolidin-1-yl)propoxy)-N-(3-((R)-3-hydroxypyrrolidin-1-yl)propyl)-2,2′-dimethyl-[1,1′-biphenyl]-3-carboxamide] | 1000 to 10000 nM | – |
| Cc1c(OCCCN2CC[C@@H](O)C2)cccc1-c1cccc(S(=O)(=O)NCCCN(C)C)c1C [Example 3010, (R)—N-(3-(dimethylamino)propyl)-3′-(3-(3-hydroxypyrrolidin-1-yl)propoxy)-2,2′-dimethyl-[1,1′-biphenyl]-3-sulfonamide] | – | 10000 nM |
| Cc1cc(OCCCN2CC[C@@H](O)C2)ccc1-c1ccc(OCCCN2CC[C@@H](O)C2)cc1C [Example 3012, (3R,3′R)-1,1′-(((2,2′-dimethyl-[1,1′-biphenyl]-4,4′-diyl)bis(oxy))bis(propane-3,1-diyl))bis(pyrrolidin-3-ol)] | > 10000 nM | – |
| Cc1c(NC(=O)CCN2CC[C@@H](O)C2)cccc1-c1cccc(OCCCN2CC[C@@H](O)C2)c1C [Example 3013, 3-((R)-3-hydroxypyrrolidin-1-yl)-N-(3′-(3-((R)-3-hydroxypyrrolidin-1-yl)propoxy)-2,2′-dimethyl-[1,1′-biphenyl]-3-yl)propanamide] | 1000 to 10000 nM | – |
| Cc1c(NC(=O)NCCC(=O)O)cccc1-c1cccc(OCCCN2CC[C@@H](O)C2)c1C [Example 3014, (R)-3-(3-(3′-(3-(3-hydroxypyrrolidin-1-yl)propoxy)-2,2′-dimethyl-[1,1′-biphenyl]-3-yl)ureido)propanoic acid] | > 10000 nM | – |
| Cc1c(OCCCN2CC[C@@H](O)C2)cccc1-c1cccc(C(=O)NCCN2CC[C@@H](O)C2)c1C [Example 3015, N-(2-((R)-3-hydroxypyrrolidin-1-yl)ethyl)-3′-(3-((R)-3-hydroxypyrrolidin-1-yl)propoxy)-2,2′-dimethyl-[1,1′-biphenyl]-3-carboxamide] | > 10000 nM | – |
| Cc1c(OCCCN2CC[C@@H](O)C2)cccc1-c1cccc(S(=O)(=O)NCCN2CC[C@@H](O)C2)c1C [Example 3016, N-(2-((R)-3-hydroxypyrrolidin-1-yl)ethyl)-3′-(3-((R)-3-hydroxypyrrolidin-1-yl)propoxy)-2,2′-dimethyl-[1,1′-biphenyl]-3-sulfonamide] | > 10000 nM | – |
| Cc1c(NC(=O)NCCN2CC[C@@H](O)C2)cccc1-c1cccc(OCCCN2CC[C@@H](O)C2)c1C [Example 3017, 1-(2-((R)-3-hydroxypyrrolidin-1-yl)ethyl)-3-(3′-(3-((R)-3-hydroxypyrrolidin-1-yl)propoxy)-2,2′-dimethyl-[1,1′-biphenyl]-3-yl)urea] | 1000 to 10000 nM | – |
| Cc1c(OCCCN2CC[C@@H](O)C2)cccc1-c1cccc(OCc2cccc(C#N)c2)c1C [Example 3019, (R)-3-(((3′-(3-(3-hydroxypyrrolidin-1-yl)propoxy)-2,2′-dimethyl-[1,1′-biphenyl]-3-yl)oxy)methyl)benzonitrile] | – | 106 nM |
| Cc1c(OCCCN2CC[C@@H](O)C2)cccc1-c1cccc(S(=O)(=O)NCCC(=O)O)c1C [Example 3020, (R)-3-(3′-(3-(3-hydroxypyrrolidin-1-yl)propoxy)-2,2′-dimethyl-[1,1′-biphenyl]-3-ylsulfonamido)propanoic acid] | 1000 to 10000 nM | – |
| Cc1ccccc1-c1ccc(OCCCN2CC[C@H](O)C2)c(OCCCN2CC[C@H](O)C2)c1 [Example 3021, (3S,3′S)-1,1′-(((2′-methyl-[1,1′-biphenyl]-3,4-diyl)bis(oxy))bis(propane-3,1-diyl))bis(pyrrolidin-3-ol)] | > 10000 nM | – |
| Cc1c(OCCCN2CC[C@@H](O)C2)cccc1-c1ccc(OCCCN2CC[C@H](O)C2)c(OCCCN2CC[C@H](O)C2)c1 [Example 3022, (3S,3′S)-1,1′-(((3′-(3-((R)-3-hydroxypyrrolidin-1-yl)propoxy)-2′-methyl-[1,1′-biphenyl]-3,4-diyl)bis(oxy))bis(propane-3,1-diyl))bis(pyrrolidin-3-ol)] | > 10000 nM | – |
| Cc1c(OCCCN2CC[C@@H](O)C2)cccc1-c1cccc(OCCCN2CC[C@@H](O)C2)c1Cl [Example 3024, (3R,3′R)-1,1′-(((2-chloro-2′-methyl-[1,1′-biphenyl]-3,3′-diyl)bis(oxy))bis(propane-3,1-diyl))bis(pyrrolidin-3-ol)] | – | 12 nM |
| Cc1c(OCCCN2CC[C@@H](O)C2)cccc1-c1cccc(OCCCN2CC[C@@H](O)C2)c1C(F)(F)F [Example 3026, (3R,3′R)-1,1′-(((2-methyl-2′-(trifluoromethyl)-[1,1′-biphenyl]-3,3′-diyl)bis(oxy))bis(propane-3,1-diyl))bis(pyrrolidin-3-ol), 2 TFA] | 90.1 to 1000 nM | – |
| Cc1c(OCCCN2CC[C@@H](O)C2)cccc1-c1cccc(OCCCc2ccccc2)c1 [Example 3027, (R)-1-(3-((2-methyl-3′-(3-phenylpropoxy)-[1,1′-biphenyl]-3-yl)oxy)propyl)pyrrolidin-3-ol] | 1000 to 10000 nM | – |
| Cc1c(OCCCN2CC[C@@H](O)C2)cccc1-c1cccc(OCc2cccc(N)c2)c1C [Example 3033, (R)-1-(3-((3′-((3-aminobenzyl)oxy)-2,2′-dimethyl-[1,1′-biphenyl]-3-yl)oxy)propyl)pyrrolidin-3-ol] | 1000 to 10000 nM | – |
| Cc1c(COc2cc(OCc3cc(F)cc(F)c3)c(CNC(CO)CO)cc2Cl)cccc1-c1cccc(COc2cc(OCc3cc(F)cc(F)c3)c(CNC(CO)CO)cc2Cl)c1C [Example 5003, 2,2′-((((((2,2′-dimethyl-[1,1′-biphenyl]-3,3′-diyl)bis(methylene))bis(oxy))bis(5-chloro-2-((3,5-difluorobenzyl)oxy)-4,1-phenylene))bis(methylene))bis(azanediyl))bis(propane-1,3-diol)] | 90.1 to 1000 nM | – |
| Cc1c(COc2cc(OCc3cc(F)cc(F)c3)c(CN(C)C(CO)CO)cc2Cl)cccc1-c1cccc(COc2cc(OCc3cc(F)cc(F)c3)c(CN(C)C(CO)CO)cc2Cl)c1C [Example 5005, 2,2′-((((((2,2′-dimethyl-[1,1′-biphenyl]-3,3′-diyl)bis(methylene))bis(oxy))bis(5-chloro-2-((3,5-difluorobenzyl)oxy)-4,1-phenylene))bis(methylene))bis(methylazanediyl))bis(propane-1,3-diol)] | 90.1 to 1000 nM | – |

Now from value to compound:

| IC50 (IC50 range class) | IC50 (numeric IC50) | Structure (SMILES) |
| --- | --- | --- |
| 20.1 to 90 nM | – | Cc1c(OCCCN2CC[C@@H](O)C2)cccc1-c1cccc(OCc2cncc(C#N)c2)c1C [Example 3011] |
| 90.1 to 1000 nM | – | Cc1c(NCCCN2CC[C@@H](O)C2)cccc1-c1cccc(OCCCN2CC[C@@H](O)C2)c1C [Example 3018, (R)-1-(3-((3′-(3-((R)-3-hydroxypyrrolidin-1-yl)propoxy)-2,2′-dimethyl-[1,1′-biphenyl]-3-yl)amino)propyl)pyrrolidin-3-ol] |
| 90.1 to 1000 nM | – | Cc1c(OCCCN2CC[C@@H](O)C2)cccc1-c1cccc(OCCCN2CC[C@@H](O)C2)c1 [Example 3023, (3R,3′R)-1,1′-(((2-methyl-[1,1′-biphenyl]-3,3′-diyl)bis(oxy))bis(propane-3,1-diyl))bis(pyrrolidin-3-ol)] |
| 90.1 to 1000 nM | – | Cc1c(OCCCN2CC[C@@H](O)C2)cccc1-c1cccc(OCCCN2CC[C@@H](O)C2)c1C#N [Example 3025, 3,3′-bis(3-((R)-3-hydroxypyrrolidin-1-yl)propoxy)-2′-methyl-[1,1′-biphenyl]-2-carbonitrile] |
| 20.1 to 90 nM | – | Cc1c(OCCCN2CC[C@@H](O)C2)cccc1-c1cccc(OCCCN2CCC(O)(c3ccccc3)C2)c1C (stereo partly drawn) [Example 3028, 1-(3-((3′-(3-((R)-3-hydroxypyrrolidin-1-yl)propoxy)-2,2′-dimethyl-[1,1′-biphenyl]-3-yl)oxy)propyl)-3-phenylpyrrolidin-3-ol, 2 TFA] |
| 0.04 to 20 nM | – | Cc1c(OCCCN2CC[C@@H](O)C2)cccc1-c1cccc(OCC2CCCN(C)C2)c1C (stereo partly drawn) [Example 3029, (3R)-1-(3-((2,2′-dimethyl-3′-((1-methylpiperidin-3-yl)methoxy)-[1,1′-biphenyl]-3-yl)oxy)propyl)pyrrolidin-3-ol] |
| 20.1 to 90 nM | – | O[C@@H]1CCN(CCC2COc3ccc(-c4ccc5c(c4)OC(CCN4CC[C@@H](O)C4)CO5)cc3O2)C1 (stereo partly drawn) [Example 3032, (3R,3′R)-1,1′-((2,2′,3,3′-tetrahydro-[6,6′-bibenzo[b][1,4]dioxine]-3,3′-diyl)bis(ethane-2,1-diyl))bis(pyrrolidin-3-ol)] |
| 0.04 to 20 nM | – | Cc1c(OCCCN2CC[C@@H](O)C2)cccc1-c1cccc(OCCCN2CC[C@@H](F)C2)c1C [Example 3035, (R)-1-(3-((3′-(3-((R)-3-fluoropyrrolidin-1-yl)propoxy)-2,2′-dimethyl-[1,1′-biphenyl]-3-yl)oxy)propyl)pyrrolidin-3-ol] |
| 0.04 to 20 nM | – | Cc1cc(OCc2cccc(-c3cccc(COc4cc(C)c(CNC(C)(CO)CO)cc4C)c3C)c2C)c(C)cc1CNC(C)(CO)CO [Example 5001, 2,2′-((((((2,2′-dimethyl-[1,1′-biphenyl]-3,3′-diyl)bis(methylene))bis(oxy))bis(2,5-dimethyl-4,1-phenylene))bis(methylene))bis(azanediyl))bis(2-methylpropane-1,3-diol)] |
| 20.1 to 90 nM | – | Cc1cc(OCc2cccc(-c3cccc(COc4cc(C)c(CN5CCCC[C@H]5C(=O)O)cc4C)c3C)c2C)c(C)cc1CN1CCCC[C@H]1C(=O)O [Example 5002, (2S,2′S)-1,1′-(((((2,2′-dimethyl-[1,1′-biphenyl]-3,3′-diyl)bis(methylene))bis(oxy))bis(2,5-dimethyl-4,1-phenylene))bis(methylene))bis(piperidine-2-carboxylic acid)] |
| 0.04 to 20 nM | – | Cc1cc(OCc2cccc(-c3cccc(COc4cc(C)c(CNC(CO)CO)cc4C)c3C)c2C)c(C)cc1CNC(CO)CO [Example 5004, 2,2′-((((((2,2′-dimethyl-[1,1′-biphenyl]-3,3′-diyl)bis(methylene))bis(oxy))bis(2,5-dimethyl-4,1-phenylene))bis(methylene))bis(azanediyl))bis(propane-1,3-diol)] |
